In PMC12073438, “Stereoselectivity of In Vivo Processes and Bioactivity of Farrerol Enantiomers” (Molecules, 2025):
Where two headings read alike, the source gives them in different places.

How the values were obtained:
CYP2A6 = biological target: T1, CYP2A6 (Homo sapiens, UniProt P11509); assay: CYP inhibition in liver microsomes (coumarin)
T1 sequence (P11509 1-494): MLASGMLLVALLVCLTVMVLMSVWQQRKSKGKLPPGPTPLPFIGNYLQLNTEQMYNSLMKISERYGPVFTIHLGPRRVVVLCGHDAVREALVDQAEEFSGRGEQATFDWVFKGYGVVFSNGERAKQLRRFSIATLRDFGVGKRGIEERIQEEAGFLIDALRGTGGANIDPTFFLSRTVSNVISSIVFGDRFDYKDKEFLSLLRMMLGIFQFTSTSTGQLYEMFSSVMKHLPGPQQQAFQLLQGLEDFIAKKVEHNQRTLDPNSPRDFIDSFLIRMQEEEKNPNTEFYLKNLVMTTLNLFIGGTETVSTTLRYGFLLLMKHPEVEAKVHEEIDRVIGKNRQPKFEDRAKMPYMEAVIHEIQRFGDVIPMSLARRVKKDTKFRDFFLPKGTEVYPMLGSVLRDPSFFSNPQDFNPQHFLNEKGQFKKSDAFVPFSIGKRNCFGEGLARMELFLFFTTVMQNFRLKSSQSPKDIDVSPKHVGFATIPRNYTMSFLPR
Protocol: (§1) A liver microsome working solution (20 mg/mL) contained potassium phosphate buffer (0.1 M, pH 7.4), hepatic microsomes and marker substrate solution, which phenacetin, diclofenic acid, S-mephenytoinwer, dextromethorphan, midazolam, coumarin and chlorzoxazone used as substrates for […], CYP2C9, CYP2C19, CYP2D6, CYP3A4/5, CYP2A6 and CYP2E1, respectively. In brief, 238.5 µL of liver microsome working solution was placed in a 1 mL EP tube. […] The reaction was started by injecting NADPH (1 mM), and the resulting mixture was incubated at 37 °C for 10 min. After centrifuging at 4000 rpm for 15 min, the supernatant was transferred and analyzed using LC-MS/MS to detect the corresponding metabolites. Each incubation was conducted in triplicate (n = 3).
(§2) An API 4000 LC/tandem mass spectrometry was used to analyze the concentration of metabolites of various chemical agents using a validated mode. An Atlantis T3 column (2.1 mm × 50 mm, 5 μm) was utilized, employing mobile phases consisting of a 0.1% formic acid solution (A) and a 0.1% acetonitrile formate solution (B). […] As for the detection of CYP 2E1 metabolite, the Flow composition was as follows: 0–0.30 min, 10% B; 0.30–1.30 min, 10–55% B; 1.30–1.50 min, 55–95% B; 1.50–2.00 min, 95% B; 2.00–2.01 min, 95–10% B; the low rate was 0.85 mL/min. ESI was conducted in positive ion mode. MRM was utilized to quantify each metabolite, detecting the following transitions: m/z 152.1/110 for acetaminophen, 312.1/230.0 for 4′-Hydroxydiclofenac, 235.0/150.0 for 4′-hydroxymephentoin, 258.2/199.1 for Dextrorphan, 342.1/203.0 for 1′-hydroxymidazolam, 161.1/133.1 for hydroxycoumarin, and 184.0/120.0 for 6-hydroxyclozoxadone.

CYP1A2 = biological target: T2, CYP1A2 (Homo sapiens, UniProt P05177); assay: CYP inhibition in liver microsomes (phenacetin); conditions: IC50, CYP 1A2, marker substrate phenacetin
T2 sequence (P05177 1-516): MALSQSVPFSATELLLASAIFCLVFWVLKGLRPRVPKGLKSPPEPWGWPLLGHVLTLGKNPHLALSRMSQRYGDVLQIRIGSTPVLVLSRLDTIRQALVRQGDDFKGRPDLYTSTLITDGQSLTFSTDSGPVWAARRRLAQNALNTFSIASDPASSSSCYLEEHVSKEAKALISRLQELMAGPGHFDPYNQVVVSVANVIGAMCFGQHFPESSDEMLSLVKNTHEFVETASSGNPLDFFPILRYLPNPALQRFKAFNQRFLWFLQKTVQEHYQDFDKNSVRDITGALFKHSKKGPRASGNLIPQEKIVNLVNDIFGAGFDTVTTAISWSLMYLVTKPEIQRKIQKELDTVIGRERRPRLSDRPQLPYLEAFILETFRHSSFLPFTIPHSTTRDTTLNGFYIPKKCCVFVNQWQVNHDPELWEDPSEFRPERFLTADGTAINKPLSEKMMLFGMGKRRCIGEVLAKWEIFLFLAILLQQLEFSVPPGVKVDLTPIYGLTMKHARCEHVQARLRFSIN
Protocol: as §1, §2

CYP2C9 = CYP2C9 (Homo sapiens, UniProt P11712); assay: CYP inhibition in liver microsomes (diclofenac); conditions: IC50, CYP 2C9, marker substrate diclofenac
Sequence of CYP2C9 (P11712 whole entry): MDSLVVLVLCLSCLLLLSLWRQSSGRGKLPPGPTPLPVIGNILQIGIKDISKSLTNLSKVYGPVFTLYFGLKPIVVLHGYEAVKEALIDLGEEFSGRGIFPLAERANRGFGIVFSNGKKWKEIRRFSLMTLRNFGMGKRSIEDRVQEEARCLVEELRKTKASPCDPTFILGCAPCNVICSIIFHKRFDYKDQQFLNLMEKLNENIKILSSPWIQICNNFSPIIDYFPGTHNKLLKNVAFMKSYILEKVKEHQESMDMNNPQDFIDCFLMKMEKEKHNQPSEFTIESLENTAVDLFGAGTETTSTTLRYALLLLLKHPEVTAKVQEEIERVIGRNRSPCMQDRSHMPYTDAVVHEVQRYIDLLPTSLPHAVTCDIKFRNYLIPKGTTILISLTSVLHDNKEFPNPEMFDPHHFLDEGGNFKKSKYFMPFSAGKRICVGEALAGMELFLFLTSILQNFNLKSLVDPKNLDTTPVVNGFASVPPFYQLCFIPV
Protocol: as §1, with “After centrifuging at 4000 rpm for 15 min, the supernatant was transferred and analyzed using LC-MS/MS to detect the corresponding metabolites.” left out
An API 4000 LC/tandem mass spectrometry was used to analyze the concentration of metabolites of various chemical agents using a validated mode. An Atlantis T3 column (2.1 mm × 50 mm, 5 μm) was utilized, employing mobile phases consisting of a 0.1% formic acid solution (A) and a 0.1% acetonitrile formate solution (B). […] ESI was conducted in positive ion mode.

SMILES: Cc1c(O)c(C)c2c(c1O)C(=O)CC(c1ccc(O)cc1)O2 (single isomer, unassigned; (+)) [(+)-farrerol, 2,3-dihydro-5,7-dihydroxy-2-(4-hydroxyphenyl)-6,8-dimethyl-4-benzopyrone]
- IC50 (CYP2A6): > 50 µM
- IC50 (CYP1A2): 588 nM
- IC50 (CYP2C9): 1970 nM

SMILES: Cc1c(O)c(C)c2c(c1O)C(=O)CC(c1ccc(O)cc1)O2 (single isomer, unassigned; (-)) [(−)-farrerol, 2,3-dihydro-5,7-dihydroxy-2-(4-hydroxyphenyl)-6,8-dimethyl-4-benzopyrone]
- IC50 (CYP2A6; CYP 2A6, marker substrate coumarin, liver microsomes): > 50 µM
- IC50 (CYP1A2): 1020 nM
- IC50 (CYP2C9): 1570 nM
